Measurements reported in US10245275B2 (ViiV HEALTHCARE UK (NO.4) LIMITED, priority 2014, dated 2019).
Where two headings read alike, the source gives them in different places.

Columns and labels:
[1] = system: WT (wild-type HIV virus; recombinant NL4-3 virus); assay: microbe, parasite or virus in culture; assay type: cell-based, HIV-1
Description: (§1) MT-2 cells and 293T cells were obtained from the NIH AIDS Research and Reference Reagent Program. MT-2 cells were propagated in RPMI 1640 media supplemented with 10% heat-inactivated fetal bovine serum, […]. The 293T cells were propagated in DMEM media supplemented with 10% heat-inactivated fetal bovine serum (FBS), 100 units/mL penicillin G and 100 μg/mL streptomycin. […] A recombinant NL4-3 virus, in which a section of the nef gene from NL4-3 was replaced with the Renilla luciferase gene, was used as a reference virus. In addition, residue Gag P373 was converted to P373S. […] Transfections were performed in 293T cells using LipofectAMINE PLUS from Invitrogen (Carlsbad, Calif.), according to manufacturer's instruction. The virus was titered in MT-2 cells using luciferase enzyme activity as a marker. Luciferase was quantitated using the Dual Luciferase kit from Promega (Madison, Wis.), with modifications to the manufacturer's protocol. The diluted Passive Lysis solution was pre-mixed with the re-suspended Luciferase Assay Reagent and the re-suspended Stop & Glo Substrate (2:1:1 ratio). Fifty (50) μL of the mixture was added to each aspirated well on assay plates and luciferase activity was measured immediately on a Wallac TriLux (Perkin-Elmer). Antiviral activities of inhibitors toward the recombinant virus were quantified by measuring luciferase activity in cells infected for 4-5 days with NLRluc recombinants in the presence serial dilutions of the inhibitor.
WT refers to wild-type HIV virus. […]

[2] = system: HIV-1 NL4-3 gag A364V virus; assay: microbe, parasite or virus in culture; assay type: cell-based
Description: as §1
Both recombinant viruses were used as described above in the HIV cell culture assay for the NL4-3 virus.

[3] = Human immunodeficiency virus 1, NL43, MT2, read-out: WT (EC50, uM), Table 1 regular screen, class symbol
[4] = Human immunodeficiency virus 1, NL43, MT2, read-out: A364V (EC50, uM), Table 1 regular screen, class symbol
[5] = Human immunodeficiency virus 1, NL43, MT2, read-out: WT (EC50, uM), Table 1 regular screen, MT-2 cells, luciferase readout
[6] = Human immunodeficiency virus 1, NL43, MT2, read-out: A364V (EC50, uM), Table 1 regular screen, MT-2 cells, luciferase readout

Structure (SMILES) | EC50 [1, 3] | EC50 [2, 4] | EC50 [1, 5] | EC50 [2, 6] | other results
C=C(C)[C@@H]1CC[C@]2(NCCN3CCN(C)C3=O)CC[C@]3(C)[C@H](CC[C@@H]4[C@@]5(C)CC=C(C6=CC[C@](CF)(C(=O)O)CC6)C(C)(C)[C@@H]5CC[C@]43C)[C@@H]12 [Example 2-26, (S)-1-(fluoromethyl)-4-((1R,3aS,5aR,5bR,7aR,11aS,11bR,13aR,13bR)-5a,5b,8,8,11a-pentamethyl-3a-((2-(3-methyl-2-oxoimidazolidin-1-yl)ethyl)amino)-1-(prop-1-en-2-yl)-2,3,3a,4,5,5a,5b,6,7,7a,8,11,11a,11b,12,13,13a,13b-octadecahydro-1H-cyclopenta[a]chrysen-9-yl)cyclohex-3-enecarboxylic acid] | < 0.05 µM | > 0.05 µM | – | – | –
C=C(C)[C@@H]1CC[C@]2(NCC(=O)N3CCN(S(C)(=O)=O)CC3)CC[C@]3(C)[C@H](CC[C@@H]4[C@@]5(C)CC=C(C6=CC[C@](CF)(C(=O)O)CC6)C(C)(C)[C@@H]5CC[C@]43C)[C@@H]12 [Example 33, (S)-1-(fluoromethyl)-4-((1R,3aS,5aR,5bR,7aR,11aS,11bR,13aR,13bR)-5a,5b,8,8,11a-pentamethyl-3a-((2-(4-(methylsulfonyl)piperazin-1-yl)-2-oxoethyl)amino)-1-(prop-1-en-2-yl)-2,3,3a,4,5,5a,5b,6,7,7a,8,11,11a,11b,12,13,13a,13b-octadecahydro-1H-cyclopenta[a]chrysen-9-yl)cyclohex-3-enecarboxylic acid] | < 0.05 µM | > 0.05 µM | – | – | –
C=C(C)[C@@H]1CC[C@]2(NCC(=O)N3CCCS(=O)(=O)CC3)CC[C@]3(C)[C@H](CC[C@@H]4[C@@]5(C)CC=C(C6=CC[C@](CF)(C(=O)O)CC6)C(C)(C)[C@@H]5CC[C@]43C)[C@@H]12 [Example 34, (S)-4-((1R,3aS,5aR,5bR,7aR,11aS,11bR,13aR,13bR)-3a-((2-(1,1-dioxido-1,4-thiazepan-4-yl)-2-oxoethyl)amino)-5a,5b, 8,8,11a-pentamethyl-1-(prop-1-en-2-yl)-2,3,3a,4,5,5a,5b,6,7,7a,8,11,11a,11b,12,13,13a,13b-octadecahydro-1H-cyclopenta[a]chrysen-9-yl)-1-(fluoromethyl)cyclohex-3-enecarboxylic acid] | < 0.05 µM | < 0.05 µM | – | – | –
C=C(C)[C@@H]1CC[C@]2(NCC(=O)N3CCC(S(C)(=O)=O)CC3)CC[C@]3(C)[C@H](CC[C@@H]4[C@@]5(C)CC=C(C6=CC[C@](CF)(C(=O)O)CC6)C(C)(C)[C@@H]5CC[C@]43C)[C@@H]12 [Example 31, (S)-1-(fluoromethyl)-4-((1R,3aS,5aR,5bR,7aR,11aS,11bR,13aR,13bR)-5a,5b, 8,8,11a-pentamethyl-3a-((2-(4-(methylsulfonyl)piperidin-1-yl)-2-oxoethyl)amino)-1-(prop-1-en-2-yl)-2,3,3a,4,5,5a,5b,6,7,7a,8,11,11a,11b,12,13,13a,13b-octadecahydro-1H-cyclopenta[a]chrysen-9-yl)cyclohex-3-enecarboxylic acid] | < 0.05 µM | > 0.05 µM | – | – | –
C=C(C)[C@@H]1CC[C@]2(NCCN3CCC(C(=O)O)(C(=O)O)CC3)CC[C@]3(C)[C@H](CC[C@@H]4[C@@]5(C)CC=C(C6=CC[C@@](CF)(C(=O)O)CC6)C(C)(C)[C@@H]5CC[C@]43C)[C@@H]12 [Example 16, 1-(2-(((1R,3aS,5aR,5bR,7aR,11aS,11bR,13aR,13bR)-9-((R)-4-carboxy-4-(fluoromethyl)cyclohex-1-en-1-yl)-5a,5b,8,8,11a-pentamethyl-1-(prop-1-en-2-yl)-2,3,3a,4,5,5a,5b,6,7,7a,8,11,11a,11b,12,13,13a,13b-octadecahydro-1H-cyclopenta[a]chrysen-3a-yl)amino)ethyl)piperidine-4,4-dicarboxylic acid] | – | – | 0.43 µM | 3 µM | –
C=C(C)[C@@H]1CC[C@]2(NCCC3(O)CCOCC3)CC[C@]3(C)[C@H](CC[C@@H]4[C@@]5(C)CC=C(C6=CC[C@](CF)(C(=O)O)CC6)C(C)(C)[C@@H]5CC[C@]43C)[C@@H]12 [Example 2-12, (S)-1-(fluoromethyl)-4-((1R,3aS,5aR,5bR,7aR,11aS,11bR,13aR,13bR)-3a-((2-(4-hydroxytetrahydro-2H-pyran-4-yl)ethyl)amino)-5a,5b, 8,8,11a-pentamethyl-1-(prop-1-en-2-yl)-2,3,3a,4,5,5a,5b,6,7,7a,8,11,11a,11b,12,13,13a,13b-octadecahydro-1H-cyclopenta[a]chrysen-9-yl)cyclohex-3-enecarboxylic acid] | – | – | 0.00201 µM | 0.348 µM | –
C=C(C)[C@@H]1CC[C@]2(NC(CN)C(F)(F)F)CC[C@]3(C)[C@H](CC[C@@H]4[C@@]5(C)CC=C(C6=CC[C@](CF)(C(=O)O)CC6)C(C)(C)[C@@H]5CC[C@]43C)[C@@H]12 (single isomer, unassigned) [Example 40] | – | – | – | – | EC50 ([1]; read-out: WT (EC50), Table 1 regular screen, MT-2 cells, luciferase readout): 0.0687 µM; EC50 ([2]; read-out: A364V (EC50), Table 1 regular screen, MT-2 cells, luciferase readout): 3 µM
C=C(C)[C@@H]1CC[C@]2(NCCC3(O)CCN(S(C)(=O)=O)CC3)CC[C@]3(C)[C@H](CC[C@@H]4[C@@]5(C)CC=C(C6=CC[C@](CF)(C(=O)O)CC6)C(C)(C)[C@@H]5CC[C@]43C)[C@@H]12 [Example 2-14, (S)-1-(fluoromethyl)-4-((1R,3aS,5aR,5bR,7aR,11aS,11bR,13aR,13bR)-3a-((2-(4-hydroxy-1-(methylsulfonyl)piperidin-4-yl)ethyl)amino)-5a,5b,8,8,11a-pentamethyl-1-(prop-1-en-2-yl)-2,3,3a,4,5,5a,5b,6,7,7a,8,11,11a,11b,12,13,13a,13b-octadecahydro-1H-cyclopenta[a]chrysen-9-yl)cyclohex-3-enecarboxylic acid] | – | – | 0.00256 µM | 0.0431 µM | –
C=C(C)[C@@H]1CC[C@]2(NCC[C@]3(O)CC[C@@H](S(C)(=O)=O)CC3)CC[C@]3(C)[C@H](CC[C@@H]4[C@@]5(C)CC=C(C6=CC[C@](CF)(C(=O)O)CC6)C(C)(C)[C@@H]5CC[C@]43C)[C@@H]12 [Example 2-19, (S)-1-(fluoromethyl)-4-((1R,3aS,5aR,5bR,7aR,11aS,11bR,13aR,13bR)-3a-((2-((cis)-1-hydroxy-4-(methylsulfonyl)cyclohexyl)ethyl)amino)-5a,5b,8,8,11a-pentamethyl-1-(prop-1-en-2-yl)-2,3,3a,4,5,5a,5b,6,7,7a,8,11,11a,11 b,12,13,13a,13b-octadecahydro-1H-cyclopenta[a]chrysen-9-yl)cyclohex-3-enecarboxylic acid] | – | – | 0.00135 µM | 0.0222 µM | –
C=C(C)[C@@H]1CC[C@]2(NCCN3CCS(=O)(=O)CC(C)C3)CC[C@]3(C)[C@H](CC[C@@H]4[C@@]5(C)CC=C(C6=CC[C@](CF)(C(=O)O)CC6)C(C)(C)[C@@H]5CC[C@]43C)[C@@H]12 (stereo partly drawn) [Example 27, (1S)-1-(fluoromethyl)-4-((1R,3aS,5aR,5bR,7aR,11aS,11bR,13aR,13bR)-5a,5b,8,8,11a-pentamethyl-3a-((2-(6-methyl-1,1-dioxido-1,4-thiazepan-4-yl)ethyl)amino)-1-(prop-1-en-2-yl)-2,3,3a,4,5,5a,5b,6,7,7a,8,11,11a,11b,12,13,13a,13b-octadecahydro-1H-cyclopenta[a]chrysen-9-yl)cyclohex-3-enecarboxylic acid] | < 0.05 µM | > 0.05 µM | – | – | –
C=C(C)[C@@H]1CC[C@]2(NCCCC(C)(C)O)CC[C@]3(C)[C@H](CC[C@@H]4[C@@]5(C)CC=C(C6=CC[C@](CF)(C(=O)O)CC6)C(C)(C)[C@@H]5CC[C@]43C)[C@@H]12 [Example 2-3, (S)-1-(fluoromethyl)-4-((1R,3aS,5aR,5bR,7aR,11aS,11bR,13aR,13bR)-3a-((4-hydroxy-4-methylpentyl)amino)-5a,5b,8,8,11a-pentamethyl-1-(prop-1-en-2-yl)-2,3,3a,4,5,5a,5b,6,7,7a,8,11,11a,11b,12,13,13a,13b-octadecahydro-1H-cyclopenta[a]chrysen-9-yl)cyclohex-3-enecarboxylic acid] | < 0.05 µM | > 0.05 µM | – | – | –
C=C(C)[C@@H]1CC[C@]2(NCCC(O)(CC)CC)CC[C@]3(C)[C@H](CC[C@@H]4[C@@]5(C)CC=C(C6=CC[C@](CF)(C(=O)O)CC6)C(C)(C)[C@@H]5CC[C@]43C)[C@@H]12 [Example 2-4, (S)-4-((1R,3aS,5aR,5bR,7aR,11aS,11bR,13aR,13bR)-3a-((3-ethyl-3-hydroxypentyl)amino)-5a,5b,8,8,11a-pentamethyl-1-(prop-1-en-2-yl)-2,3,3a,4,5,5a,5b,6,7,7a,8,11,11a,11b,12,13,13a,13b-octadecahydro-1H-cyclopenta[a]chrysen-9-yl)-1-(fluoromethyl)cyclohex-3-enecarboxylic acid] | < 0.05 µM | > 0.05 µM | – | – | –
